Experimental data taken from ChEMBL document CHEMBL4004838, “Design and synthesis of novel phenyl -1, 4-beta-carboline-hybrid molecules as potential anticancer agents” (Eur J Med Chem, 2017).

Legend:
Format in all cases: functional
[1] = tested on: LOX IMVI; assay: Growth inhibition of human LOXIMVI cells assessed as cell growth at 100 uM incubated for 48 hrs by sulforhodamine B assay relative to control; settings: read-out: Activity
[2] = tested on: K562; assay: Growth inhibition of human K562 cells assessed as cell growth at 0.01 uM incubated for 48 hrs by sulforhodamine B assay relative to control; settings: K562, 48 h, read-out: Activity
[3] = tested on: SF-268; assay: Growth inhibition of human SF268 cells assessed as cell growth at 0.01 uM incubated for 48 hrs by sulforhodamine B assay relative to control; settings: SF-268, 48 h, read-out: Activity
[4] = tested on: HOP-62; assay: Growth inhibition of human HOP62 cells assessed as cell growth at 0.1 uM incubated for 48 hrs by sulforhodamine B assay relative to control; settings: HOP-62, 48 h, read-out: Activity
[5] = tested on: SK-MEL-2; assay: Growth inhibition of human SK-MEL-2 cells assessed as cell growth at 0.01 uM incubated for 48 hrs by sulforhodamine B assay relative to control; settings: SK-MEL-2, 48 h, read-out: Activity
[6] = tested on: TK-10; assay: Growth inhibition of human TK10 cells assessed as cell growth at 1 uM incubated for 48 hrs by sulforhodamine B assay relative to control; settings: TK-10, 48 h, read-out: Activity
[7] = tested on: SW-620; assay: Growth inhibition of human SW620 cells assessed as cell growth at 1 uM incubated for 48 hrs by sulforhodamine B assay relative to control; settings: SW-620, 48 h, read-out: Activity
[8] = tested on: ACHN; assay: Growth inhibition of human ACHN cells incubated for 48 hrs by sulforhodamine B assay
[9] = tested on: UO-31; assay: Growth inhibition of human UO31 cells assessed as cell growth at 0.1 uM incubated for 48 hrs by sulforhodamine B assay relative to control; settings: UO-31, 48 h, read-out: Activity
[10] = tested on: ACHN; assay: Growth inhibition of human ACHN cells assessed as cell growth at 1 uM incubated for 48 hrs by sulforhodamine B assay relative to control; settings: read-out: Activity
[11] = tested on: SF-539; assay: Growth inhibition of human SF539 cells assessed as cell growth at 0.1 uM incubated for 48 hrs by sulforhodamine B assay relative to control; settings: SF-539, 48 h, read-out: Activity
[12] = tested on: NCI-H23; assay: Growth inhibition of human NCI-H23 cells assessed as cell growth at 100 uM incubated for 48 hrs by sulforhodamine B assay relative to control; settings: NCI-H23, 48 h, read-out: Activity
[13] = tested on: CAKI-1; assay: Growth inhibition of human Caki1 cells assessed as cell growth at 1 uM incubated for 48 hrs by sulforhodamine B assay relative to control; settings: CAKI-1, 48 h, read-out: Activity
[14] = tested on: OVCAR-4; assay: Growth inhibition of human OVCAR4 cells incubated for 48 hrs by sulforhodamine B assay; settings: OVCAR-4, 48 h
[15] = tested on: K562; assay: Growth inhibition of human K562 cells assessed as cell growth at 100 uM incubated for 48 hrs by sulforhodamine B assay relative to control; settings: K562, 48 h, read-out: Activity
[16] = tested on: HCT-116; assay: Growth inhibition of human HCT116 cells assessed as cell growth at 0.01 uM incubated for 48 hrs by sulforhodamine B assay relative to control; settings: HCT-116, 48 h, read-out: Activity
[17] = tested on: RXF 393; assay: Growth inhibition of human RXF393 cells assessed as cell growth at 0.01 uM incubated for 48 hrs by sulforhodamine B assay relative to control; settings: RXF 393, 48 h, read-out: Activity
[18] = tested on: NCI/ADR-RES; assay: Growth inhibition of human NCI-ADR-RES cells assessed as cell growth at 100 uM incubated for 48 hrs by sulforhodamine B assay relative to control; settings: read-out: Activity
[19] = tested on: Malme-3M; assay: Growth inhibition of human MALME-3M cells incubated for 48 hrs by sulforhodamine B assay
[20] = tested on: RPMI-8226; assay: Growth inhibition of human RPMI8226 cells assessed as cell growth at 0.1 uM incubated for 48 hrs by sulforhodamine B assay relative to control; settings: RPMI-8226, 48 h, read-out: Activity
[21] = tested on: NCI/ADR-RES; assay: Growth inhibition of human NCI-ADR-RES cells assessed as cell growth at 0.1 uM incubated for 48 hrs by sulforhodamine B assay relative to control; settings: read-out: Activity
[22] = tested on: CAKI-1; assay: Growth inhibition of human Caki1 cells assessed as cell growth at 0.01 uM incubated for 48 hrs by sulforhodamine B assay relative to control; settings: CAKI-1, 48 h, read-out: Activity
[23] = tested on: Hs-578T; assay: Growth inhibition of human Hs 578T cells incubated for 48 hrs by sulforhodamine B assay
[24] = tested on: SK-MEL-5; assay: Growth inhibition of human SK-MEL-5 cells assessed as cell growth at 0.1 uM incubated for 48 hrs by sulforhodamine B assay relative to control; settings: SK-MEL-5, 48 h, read-out: Activity
[25] = tested on: COLO 205; assay: Growth inhibition of human COLO205 cells incubated for 48 hrs by sulforhodamine B assay; settings: COLO 205, 48 h
[26] = tested on: Hs-578T; assay: Growth inhibition of human Hs 578T cells assessed as cell growth at 1 uM incubated for 48 hrs by sulforhodamine B assay relative to control; settings: read-out: Activity
[27] = tested on: HT-29; assay: Growth inhibition of human HT-29 cells incubated for 48 hrs by sulforhodamine B assay; settings: HT-29, 48 h
[28] = tested on: SF-539; assay: Growth inhibition of human SF539 cells incubated for 48 hrs by sulforhodamine B assay; settings: SF-539, 48 h
[29] = tested on: NCI-H322M; assay: Growth inhibition of human NCI-H322M cells assessed as cell growth at 0.01 uM incubated for 48 hrs by sulforhodamine B assay relative to control; settings: read-out: Activity
[30] = tested on: HCC 2998; assay: Growth inhibition of human HCC2998 cells assessed as cell growth at 100 uM incubated for 48 hrs by sulforhodamine B assay relative to control; settings: HCC 2998, 48 h, read-out: Activity
[31] = read-out: LC50 (the source's name)
[32] = read-out: pLC50 (the source's name) (converted)

SMILES: c1ccc2[nH]c(-c3ccc(-c4nccc5c4[nH]c4ccccc45)cc3)nc2c1
- growth at 100 µM [1]: 49%
- growth at 0.01 µM [2]: 104%
- growth at 0.01 µM [3]: 97%
- growth at 0.1 µM [4]: 89%
- growth at 0.01 µM [5]: 95%
- growth at 1 µM [6]: 96%
- growth at 1 µM [7]: 96%
- GI50 ([8]; read-out: GI50): 2.05 µM
- CC50 [8, 31]: 8.46 µM
- TGI ([8]; read-out: TGI): 4.17 µM
- GI50 ([8]; read-out: pGI50 (converted)): 2.04 µM
- CC50 [8, 32]: 8.51 µM
- TGI ([8]; read-out: pTGI (converted)): 4.17 µM
- growth at 0.1 µM [9]: 91%
- growth at 1 µM [10]: 101%
- growth at 0.1 µM [11]: 98%
- growth at 100 µM [12]: 54%
- growth at 1 µM [13]: 91%
- GI50 ([14]; read-out: GI50): 2.27 µM
- TGI ([14]; read-out: TGI): 7.75 µM
- GI50 ([14]; read-out: pGI50 (converted)): 2.29 µM
- CC50 [14, 32]: > 100 µM
- TGI ([14]; read-out: pTGI (converted)): 7.76 µM
- growth at 100 µM [15]: 59%
- growth at 0.01 µM [16]: 92%
- growth at 0.01 µM [17]: 106%
- growth at 100 µM [18]: 45%
- GI50 ([19]; read-out: GI50): 1.85 µM
- CC50 [19, 31]: 7.07 µM
- TGI ([19]; read-out: TGI): 3.61 µM
- GI50 ([19]; read-out: pGI50 (converted)): 1.86 µM
- CC50 [19, 32]: 7.08 µM
- TGI ([19]; read-out: pTGI (converted)): 3.63 µM
- growth at 0.1 µM [20]: 105%
- growth at 0.1 µM [21]: 98%
- growth at 0.01 µM [22]: 91%
- GI50 ([23]; read-out: GI50): 2.23 µM
- TGI ([23]; read-out: TGI): 5.93 µM
- GI50 ([23]; read-out: pGI50 (converted)): 2.24 µM
- CC50 [23, 32]: > 100 µM
- TGI ([23]; read-out: pTGI (converted)): 5.89 µM
- growth at 0.1 µM [24]: 100%
- GI50 ([25]; read-out: GI50): 2.32 µM
- CC50 [25, 31]: 4.35 µM
- TGI ([25]; read-out: TGI): 6.22 µM
- GI50 ([25]; read-out: pGI50 (converted)): 2.34 µM
- CC50 [25, 32]: 43.7 µM
- TGI ([25]; read-out: pTGI (converted)): 6.17 µM
- growth at 1 µM [26]: 91%
- GI50 ([27]; read-out: GI50): 2.19 µM
- CC50 [27, 31]: 8.97 µM
- TGI ([27]; read-out: TGI): 4.43 µM
- GI50 ([27]; read-out: pGI50 (converted)): 2.19 µM
- CC50 [27, 32]: 8.91 µM
- TGI ([27]; read-out: pTGI (converted)): 4.47 µM
- GI50 ([28]; read-out: GI50): 1.89 µM
- CC50 [28, 31]: 7.17 µM
- TGI ([28]; read-out: TGI): 3.68 µM
- GI50 ([28]; read-out: pGI50 (converted)): 1.91 µM
- CC50 [28, 32]: 7.24 µM
- TGI ([28]; read-out: pTGI (converted)): 3.72 µM
- growth at 0.01 µM [29]: 92%
- growth at 100 µM [30]: 76%

SMILES: c1ccc2c3c([nH]c2c1)C(c1ccc(C2NCCc4c2[nH]c2ccccc42)cc1)NCC3 (racemic)
- growth at 100 µM [1]: 84%
- growth at 0.01 µM [2]: 113%
- growth at 0.01 µM [3]: 92%
- growth at 0.1 µM [4]: 85%
- growth at 0.01 µM [5]: 100%
- growth at 1 µM [6]: 97%
- growth at 1 µM [7]: 86%
- CC50 [8, 31]: 4.58 µM
- GI50 ([8]; read-out: pGI50 (converted)): 0.708 µM
- CC50 [8, 32]: 4.57 µM
- TGI ([8]; read-out: pTGI (converted)): 2 µM
- growth at 0.1 µM [9]: 74%
- growth at 1 µM [10]: 42%
- growth at 0.1 µM [11]: 95%
- growth at 100 µM [12]: 86%
- growth at 1 µM [13]: 78%
- GI50 ([14]; read-out: GI50): 1.14 µM
- CC50 [14, 31]: 5.61 µM
- TGI ([14]; read-out: TGI): 2.53 µM
- GI50 ([14]; read-out: pGI50 (converted)): 1.15 µM
- CC50 [14, 32]: 5.62 µM
- TGI ([14]; read-out: pTGI (converted)): 2.51 µM
- growth at 100 µM [15]: 78%
- growth at 0.01 µM [16]: 91%
- growth at 0.01 µM [17]: 101%
- growth at 100 µM [18]: -30%
- GI50 ([19]; read-out: GI50): 1.55 µM
- CC50 [19, 31]: 6.24 µM
- TGI ([19]; read-out: TGI): 3.11 µM
- GI50 ([19]; read-out: pGI50 (converted)): 1.55 µM
- CC50 [19, 32]: 6.17 µM
- TGI ([19]; read-out: pTGI (converted)): 3.09 µM
- growth at 0.1 µM [20]: 105%
- growth at 0.1 µM [21]: 93%
- growth at 0.01 µM [22]: 90%
- GI50 ([23]; read-out: GI50): 1.43 µM
- CC50 [23, 31]: 11.5 µM
- TGI ([23]; read-out: TGI): 3.82 µM
- GI50 ([23]; read-out: pGI50 (converted)): 1.45 µM
- CC50 [23, 32]: 11.5 µM
- TGI ([23]; read-out: pTGI (converted)): 3.8 µM
- growth at 0.1 µM [24]: 101%
- GI50 ([25]; read-out: GI50): 2.04 µM
- CC50 [25, 31]: 1.2 µM
- TGI ([25]; read-out: TGI): 4.59 µM
- GI50 ([25]; read-out: pGI50 (converted)): 0.204 µM
- CC50 [25, 32]: 1.2 µM
- TGI ([25]; read-out: pTGI (converted)): 0.457 µM
- growth at 1 µM [26]: 68%
- GI50 ([27]; read-out: GI50): 2.8 µM
- CC50 [27, 31]: 3.92 µM
- TGI ([27]; read-out: TGI): 7.35 µM
- GI50 ([27]; read-out: pGI50 (converted)): 0.282 µM
- CC50 [27, 32]: 3.89 µM
- TGI ([27]; read-out: pTGI (converted)): 0.741 µM
- GI50 ([28]; read-out: GI50): 1.62 µM
- CC50 [28, 31]: 5.71 µM
- TGI ([28]; read-out: TGI): 3.04 µM
- GI50 ([28]; read-out: pGI50 (converted)): 1.62 µM
- CC50 [28, 32]: 5.75 µM
- TGI ([28]; read-out: pTGI (converted)): 3.02 µM
- growth at 0.01 µM [29]: 92%
- growth at 100 µM [30]: 84%
